Like-named read-outs stand apart in the source and are kept apart here.

This experiment has as its system ACHN cell line. Briefly: drug screen of the SelleckChem kinase inhibitor library with and without 5 uM SU-329, Cell-Titer Glo after 5 days. The format is cell-based.
The mark [1] stands for this setting: kinase inhibitor at 200 nM with and without 5 uM SU329, ACHN cell line, 5 days, Cell-Titer Glo.

Under setting [1], `N[C@@H]1CCCN(c2c(/C=C3\SC(=O)NC3=O)cccc2-c2ccccc2)C1` [AZD1208] had a log2fc of −0.4967.

Molecule `CN1CCC(COc2cnc(-c3cccc(Cn4nc(-c5cccc(C#N)c5)ccc4=O)c3)nc2)CC1` [Tepotinib (EMD 1214063)] gave a log2fc under setting [1] of 0.04059.

In turn, `C[C@H]1[C@H](C)CC[C@]2(C(=O)O)CC[C@]3(C)C(=CC[C@@H]4[C@@]5(C)C[C@@H](O)[C@H](O)[C@@](C)(CO)[C@@H]5CC[C@]43C)[C@H]12` [Asiatic Acid] yielded a log2fc under setting [1] of 0.1505.

The molecule `Cn1sc(=O)n(Cc2ccccc2)c1=O` [TDZD-8] returned a log2fc under setting [1] of 0.1552.

`C=CC(=O)N1CCC[C@@H](n2nc(-c3ccc(Oc4ccccc4)cc3)c3c(N)ncnc32)C1` [Ibrutinib (PCI-32765)] displayed a log2fc under setting [1] of 1.289.

Molecule `CN(c1ncccc1CNc1nc(Nc2ccc3c(c2)CC(=O)N3)ncc1C(F)(F)F)S(C)(=O)=O` [PF-00562271] had a log2fc under setting [1] of 0.8274.

As for `CC[C@H](CO)Nc1nc(NCc2ccccc2)c2ncn(C(C)C)c2n1` [Roscovitine (Seliciclib, CYC202)], under setting [1], the log2fc was 0.5993.

For `CN(C[C@@H]1COCCO1)S(=O)(=O)Nc1ccc2ccc3ncc(-c4cnn(C)c4)cc3c(=O)c2c1` [MK-2461], under setting [1], the log2fc stood at 0.09192.

Turning to `CCn1c(-c2nonc2N)nc2c(C#CC(C)(C)O)ncc(OC[C@H]3CCCNC3)c21` [GSK690693], the log2fc under setting [1] is recorded as −0.5999.

`C[C@@H]1CN(CC(=O)Nc2ccc3c(c2)Cc2cccc(-c4cc(=O)cc(N5CCOCC5)o4)c2S3)C[C@H](C)O1` [KU-60019]: the log2fc under setting [1] worked out at 0.886.

For `Cc1c(F)cc(C(=O)NC2CC2)cc1-c1ccc(C(=O)NCC(C)(C)C)cn1` [Losmapimod (GW856553X)], under setting [1], the log2fc is reported as −0.5236.

`CC[C@@H]1C(=O)N(C)c2cnc(Nc3ccc(C(=O)NC4CCN(C)CC4)cc3OC)nc2N1C1CCCC1` [BI 2536] came in with a log2fc under setting [1] of 1.415.

Under setting [1], `O=C(Nc1cccc(Nc2ncc(Br)c(NCCc3cnc[nH]3)n2)c1)N1CCCC1` [BX-912] had a log2fc of −0.4536.

`O=C1NC(=O)/C(=C/c2ccc(-c3ccc(F)cc3O)o2)S1` [AS-252424] had a log2fc under setting [1] of −0.1563.

For `O=C1NC(=O)C(c2ccccc2[N+](=O)[O-])=C1Nc1ccc(O)c(Cl)c1` [SB415286], under setting [1], the log2fc is 0.2736.

In the case of `CCCCCCCCc1ccc(CCC(N)(CO)CO)cc1.Cl` [Fingolimod (FTY720) HCl], under setting [1], the log2fc is reported as 0.7051.

Take `Cc1cc(C(=O)NOCCO)c(Nc2ccc(I)cc2F)n(C)c1=O` [AZD8330]: under setting [1], the log2fc turned out to be 0.5935.

As to `COc1c(C)c(C(=O)c2ccc(N)c(C(=O)[O-])c2)n2ccccc12.[Na+]` [SSR128129E], under setting [1], the log2fc was found to be 0.3473.

As for `CCCCCCCCCCCCc1ccc(S(=O)(=O)Nc2nncs2)cc1` [PHT-427], the log2fc under setting [1] is −0.02861.

Turning to `COc1cc2nccc(Oc3ccc(NC(=O)Nc4ccc(F)cc4F)c(F)c3)c2cc1OC` [Ki8751], the log2fc under setting [1] was determined as 0.1011.

As to `Clc1ccc(C2(c3ccc(-c4cn[nH]c4)cc3)CCNCC2)cc1` [AT7867], the log2fc under setting [1] is on record as −0.935.

Under setting [1], `COc1cc2ncnc(Nc3ccc(F)c(Cl)c3)c2cc1NC(=O)/C=C/CN1CCCCC1` [Dacomitinib (PF299804, PF299)] returned a log2fc of 0.3997.

In turn, `Cc1cc(C(C)Nc2ccccc2)c2nc(N3CCOCC3)cc(=O)n2c1` (stereo not shown) [TGX-221] registered a log2fc under setting [1] of −0.3415.

Under setting [1], `O=C(Nc1ccc(OC(F)(F)F)cc1)c1sccc1NCc1ccnc2ccccc12` [OSI-930] returned a log2fc of −0.2273.

Under setting [1], `Cc1nc(Nc2cnn(C3CCNCC3)c2)nc2c1N(C)C(=O)c1cc3ccccc3cc1N2C` [HTH-01-015] showed a log2fc of 0.3141.

`O=C(Nc1ccc(-c2ccnc(Nc3ccc(N4CCOCC4)cc3)n2)cc1)C1CCCN1` (stereo not shown) [XL019] had a log2fc under setting [1] of −0.1669.

In the case of `CN1CCN(CCOc2cc(OC3CCOCC3)c3c(Nc4c(Cl)ccc5c4OCO5)ncnc3c2)CC1` [Saracatinib (AZD0530)], the log2fc under setting [1] is listed as 0.4009.

`N#Cc1ccc2[nH]c(O)c(-c3ccc(CN4CCOCC4)cn3)c2c1` [AZD1080] had a log2fc under setting [1] of 1.953.

Take `CC(C)(C)c1cc(/C=C(\C#N)C(N)=S)cc(C(C)(C)C)c1O` [Tyrphostin AG 879]: the log2fc under setting [1] came to 0.3391.

`Nc1nc(N)c2nc(-c3cccc(O)c3)c(-c3cccc(O)c3)nc2n1` [TG100-115] displayed a log2fc under setting [1] of 0.2334.

Under setting [1], `Oc1ccc(-c2nc(-c3ccc(F)cc3)c(-c3ccncc3)[nH]2)cc1` [SB202190 (FHPI)] came in with a log2fc of −0.3986.

`COc1ccc(S(=O)(=O)N(CCO)c2ccccc2CN(C)C/C=C/c2ccc(Cl)cc2)cc1.O=P(O)(O)O` [KN-93 Phosphate] had a log2fc under setting [1] of 0.02491.

The molecule `COc1cc(CCc2cc(NC(=O)c3ccc(N4CC(C)NC(C)C4)cc3)n[nH]2)cc(OC)c1` (stereo not shown) [AZD4547] came in with a log2fc under setting [1] of 0.4725.

`CC1(C)CNc2cc(NC(=O)c3cccnc3NCc3ccncc3)ccc21.O=P(O)(O)O.O=P(O)(O)O` [Motesanib Diphosphate (AMG-706)]: the log2fc under setting [1] was −0.1118.

Turning to `CCOc1cc(N2CCC(O)CC2)ccc1Nc1ncc2c(n1)N(C)c1ccccc1C(=O)N2C` [XMD8-92], the log2fc under setting [1] is on record as −0.09901.

As to `CNC(=O)c1cc(Oc2ccc(NC(=O)Nc3ccc(Cl)c(C(F)(F)F)c3)cc2)ccn1` [Sorafenib, sorafenib, reference compound], under setting [1], the log2fc was found to be 0.2462.

On to `Cc1ccc(C(=O)Nc2ccc(CN3CCN(C)CC3)c(C(F)(F)F)c2)cc1C#Cc1cnc2cccnn12` [Ponatinib (AP24534)], for which the log2fc under setting [1] is −0.4485.

`C=CC(=O)Nc1cccc(Oc2nc(Nc3ccc(N4CCN(C)CC4)cc3OC)ncc2Cl)c1` [WZ4002, reference compound] registered a log2fc under setting [1] of −0.07545.

Molecule `N#CC(=C(/N)Sc1ccccc1N)/C(C#N)=C(\N)Sc1ccccc1N` [U0126-EtOH, U0126, reference compound] yielded a log2fc of −0.3988.

In turn, `O=C(NC1CCNCC1)c1n[nH]cc1NC(=O)c1c(Cl)cccc1Cl` [AT7519] displayed a log2fc under setting [1] of −1.085.

Under setting [1], `COc1cc2ncnc(Nc3ccc(Cl)cc3F)c2cc1OC` [ZM 306416] had a log2fc of 0.5807.

Under setting [1], `CNCc1ccc(-c2cc(-c3nc(-c4ccc(S(=O)(=O)C(C)C)cc4)cnc3N)on2)cc1` [VE-822] displayed a log2fc of 0.3083.

Regarding `Cc1[nH]nc2ccc(-c3cncc(OC[C@@H](N)Cc4ccccc4)c3)cc12` [A-674563], the log2fc under setting [1] is −0.6438.

In the case of `O=C(O)[C@]1(Cc2cccc(Nc3nccs3)n2)CC[C@@H](Oc2cccc(Cl)c2F)CC1` [MK-5108 (VX-689)], the log2fc under setting [1] is recorded as −0.2429.

Molecule `CC(C)(O)CC(=O)NCCn1ccc2ncnc(Nc3ccc(Oc4cccc(C(F)(F)F)c4)c(Cl)c3)c21` [TAK-285, reference compound] gave a log2fc under setting [1] of 0.3876.

Under setting [1], S-Ruxolitinib (INCB018424) displayed a log2fc of −0.1855.

`C[C@@H]1CCN(C(=O)CC#N)C[C@@H]1N(C)c1ncnc2[nH]ccc12.O=C(O)CC(O)(CC(=O)O)C(=O)O` [Tofacitinib (CP-690550) Citrate] came in with a log2fc under setting [1] of 0.3512.

Under setting [1], `COc1cc(Nc2ncc3c(n2)-c2ccc(Cl)cc2C(c2c(F)cccc2OC)=NC3)ccc1C(=O)O` [Alisertib (MLN8237)] returned a log2fc of 0.7052.

Consider `CN1CCC(CNc2ccc3ncc(-c4cccc(OC(F)(F)F)c4)n3n2)CC1` [SGI-1776 free base], for which, under setting [1], the log2fc is reported as −0.0254.

The values above are taken from patent US12195490B2, “STRAD-binding agents and uses thereof” (The Regents of the University of California, priority 2020, dated 2025).
